Residues, ends and D or L forms follow the SMILES beside them. No end group written: not given here. *: point of attachment. 5FAM = O=C1OC2(c3ccc(O)cc3Oc3cc(O)ccc32)c2ccc(C(=O)*)cc21
Legend:
[1] = target: T1, His-tagged recombinant AGO2 (Homo sapiens, UniProt Q9UKV8); experiment: Surface plasmon resonance (Biacore T200) binding of peptides to AGO2; conditions: for kon: read-out: ka (association rate constant); for koff: read-out: kd (dissociation rate constant)
Description: Surface Plasmon Resonance (SPR) was utilized using Biacore T200 (GE Healthcare) to study binding affinities between decoy peptides Pep#11 and Pep#26 peptides with recombinant His-tagged AGO2 protein. The recombinant His-AGO2 and MSI1 peptides were diluted in HBS-P buffer (10 mM HEPES, 150 mM NaCl and 0.005% T20, pH 7.4). To evaluate the binding affinity, recombinant His-AGO2 was immobilized on a CM5 sensor chip (GE Healthcare, BR100012) via amine coupling (~7000 RU) for 3600 s at a rate of 5 µL/mins, and flow rate for binding analysis was run at 30 µL/mins. After injection of each peptide, the surface was regenerated with an injection of 10 mM NaOH. All sensorgrams were double referenced by subtracting the surface effect from the control flow […] and the buffer effect form the blank buffer. The kinetic values ka, kd, and KD were obtained using Biacore T200 Evaluation Software (GE healthcare) assuming the Langmuir 1:1 binding model.

[2] = target: T2, MSI1/AGO2 interaction (M-NGluc / A-CGluc) (Homo sapiens, UniProt Q9UKV8); experiment: Split Gaussia luciferase reconstitution assay of MSI1/AGO2 interaction; format: cell-based; conditions: IVIS; for reconstituted luciferase luminescence versus non-treated or CP-treated cells: tat-conjugated peptides, cisplatin-induced stress (30 µM)
T2 construct: expressed in transfected cells; pcDNA 3.1 and pCMV backbones
Excerpt: We applied a gaussia luciferase (Gluc) system to detect protein–protein interaction between MSI1 and AOG2. We split gaussia luciferase into two fragments: the 106 a.a. N-terminus (NGluc) and the 79 a.a. C-terminus (CGluc). After polymerase chain reaction (PCR) amplification, the NGluc and CGluc were subjected to construct fusion protein with MSI1 and AGO2, respectively, in the pcDNA 3.1 and pCMV backbone. Each fusion protein contains a flexible linker (GGGGS) 2 between the protein and polypeptides of split luciferase. We stably transfected both fusion protein expression plasmids in DBTRG-05MG GBM cell line and generated a stable cell line with Hygromycin B (Sigma Aldrich Co., St. Louis, MI, USA) and G418 sulfate (Merck Co., […], Germany). We established a normalizing standard by transducing multiple reporter genes into the generated stable cell line for stably expressing green fluorescent protein (GFP), firefly luciferase (FLuc), and herpes simplex virus type I thymidine kinase (HSV1-tk) using lentivirus as previously described. For in vitro MSI1/AGO2 interaction study in cells, cell lysates were prepared with mild reporter lysis buffer (Promega Co., Madison, WI, USA) with a frozen–thaw cycle. The supernatant was then collected after centrifugation and dispensed in a 96-well black flat bottom plate. Coelenterazine (Nanolight Technologies, Ltd., Pinetop, AZ, USA), the substrate of GLuc, was firstly dissolved in methanol and diluted in reporter assay buffer (15 mM potassium phosphate, 25 mM glycylglycine, 15 mM MgSO4, 4 mM EDTA). D-luciferin sodium salt (Promega Co., Madison, WI, USA) was dissolved in sterilized water and diluted in reporter assay buffer supplemented with 2mM ATP. The bioluminescent signals were acquired by Wallac 1420 Victor2 Microplate Reader (Perkin Elmer, Waltham, MA, USA) equipped with auto-dispenser to avoid rapid decay of Gluc.

[3] = target: T1, His-tagged recombinant AGO2; experiment: PepSpot peptide tiling array incubated with His-tagged AGO2; format: binding; conditions: 15-mer peptides on nitrocellulose, 2 μg His-AGO2 overnight, HRP anti-6×His
Description: To rapidly screen the putative binding hotspots along the C-terminus of MSI1, we mimicked the epitope screening method by dotting the synthetic short peptides on nitrocellulose membrane and incubated with purified AGO2 protein [49]. The C-terminus of MSI1 (200–362) was divided into 27 individual synthetic peptides with N-terminal amine attached on the nitrocellulose. Each peptide is 15 amino acids in length and has eight amino acids overlapping with the previous neighboring peptide (Table S1). The purchased PepSpot membrane (JPT peptide technologies, Berlin, Germany) was firstly rinsed in methanol for 5 min, followed by Tris buffer saline supplemented with 0.1% Tween-20 (TBS-T) washing thrice. The membrane was then blocked by Superblock T20 blocking buffer (Thermo Fisher Scientific Inc., Waltham, MA, USA) for 2 h and 2 μg His-tagged AGO2 recombinant protein was added for an overnight incubation. The membrane was washed thrice with TBS-T and incubated with horseradish peroxidase (HRP)-conjugated 6×His tag primary antibody (Genetex Inc., Hsinchu, Taiwan) for 4 h under 4 °C. Enhanced chemiluminescent reagent was used for further blotting.

DBTRG-05MG cell line = experiment: Concentration-dependent cellular uptake (half-uptake concentration EC50); format: in vitro ADME, human; conditions: Figure 6A,B legend, fluorescein labeled peptides, ELISA reader
DBTRG-05MG cells [4] = experiment: Degradation of 5′FAM-labeled peptides in cells; format: in vitro ADME, human; conditions: 5′FAM-labeled peptide, cells followed up to 6 h, fluorescence by ELISA reader, three independent experiments
DBTRG-05MG cells [5] = experiment: Time-lapse cellular uptake of 5′FAM-labeled peptides; format: in vitro ADME, human; conditions: 5′FAM-labeled peptide, time-lapse confocal and fluorescence by ELISA reader, n = 3 per time point
MSI1/AGO2 interaction = target: T3, MSI1/AGO2 interaction (Homo sapiens, UniProt Q9UKV8); experiment: Co-immunoprecipitation competition of MSI1/AGO2 complex in cells; format: cell-based; conditions: cells treated with 10 µM peptide, hypoxic condition
T3 construct: endogenous in cells
Excerpt: (§1) Other general procedures not detailed above including plasmid constructions, transfection, co-immunoprecipitation, RNA extraction, quantitative real-time PCR (qRT-PCR), gene expression analysis, Western blotting, immunofluorescence (IF) staining, and immunohistochemistry staining (IHC) were described previously.

[6] = test system: CCND1, CDK4, HELLS, NF2, TP53, p21 mRNA; experiment: qRT-PCR of downstream mRNA targets of the MSI1-AGO2 complex under hypoxia; format: cell-based, human; conditions: peptide transfection in DBTRG-05MG cells, hypoxia versus normoxia
Description: In vitro binding assay was carried out with N-terminal biotinylated synthetic peptides (Table S3) based on our peptide array screening. The synthesized peptides (Thermo Fisher Scientific Inc., Waltham, MA, USA) were dissolved in 10% DMSO by 1 mg/mL and subjected to incubation with an equal amount of AGO2 recombinant protein (2 μg each) in T20 blocking solution (Thermo Fisher Scientific Inc., Waltham, MA, USA). After 16 h incubation, the peptides were pulled down with immobilized streptavidin (Pierce 21115, Thermo Fisher Scientific Inc., Waltham, MA, USA). The precipitated peptide/protein complex was subjected to immunoblotting with 6×His primary antibody (GeneTex Inc., Hsinchu, Taiwan) hybridization and detection. Peptide transfection was carried out with Proteojuice (Millipore 71281, Merck Co., Darmstadt, Germany) following the manufacturer’s instruction. For the in vivo compatible cell-penetrating peptide (CPP)-modified peptides, we tested two different CPPs at the C-terminal ends, including TAT (48–60) from HIV [55, 56, 57].
as §1

endogenous AGO2 = target: T4, endogenous AGO2 (Homo sapiens, UniProt Q9UKV8); experiment: Confocal immunofluorescence of 5′FAM-tagged peptides: cell entry and co-localization with AGO2; format: cell-based; conditions: 10 µM 5′FAM-tagged peptide
T4 construct: endogenous in cells
Excerpt: as §1

T4 sequence (Q9UKV8 whole entry): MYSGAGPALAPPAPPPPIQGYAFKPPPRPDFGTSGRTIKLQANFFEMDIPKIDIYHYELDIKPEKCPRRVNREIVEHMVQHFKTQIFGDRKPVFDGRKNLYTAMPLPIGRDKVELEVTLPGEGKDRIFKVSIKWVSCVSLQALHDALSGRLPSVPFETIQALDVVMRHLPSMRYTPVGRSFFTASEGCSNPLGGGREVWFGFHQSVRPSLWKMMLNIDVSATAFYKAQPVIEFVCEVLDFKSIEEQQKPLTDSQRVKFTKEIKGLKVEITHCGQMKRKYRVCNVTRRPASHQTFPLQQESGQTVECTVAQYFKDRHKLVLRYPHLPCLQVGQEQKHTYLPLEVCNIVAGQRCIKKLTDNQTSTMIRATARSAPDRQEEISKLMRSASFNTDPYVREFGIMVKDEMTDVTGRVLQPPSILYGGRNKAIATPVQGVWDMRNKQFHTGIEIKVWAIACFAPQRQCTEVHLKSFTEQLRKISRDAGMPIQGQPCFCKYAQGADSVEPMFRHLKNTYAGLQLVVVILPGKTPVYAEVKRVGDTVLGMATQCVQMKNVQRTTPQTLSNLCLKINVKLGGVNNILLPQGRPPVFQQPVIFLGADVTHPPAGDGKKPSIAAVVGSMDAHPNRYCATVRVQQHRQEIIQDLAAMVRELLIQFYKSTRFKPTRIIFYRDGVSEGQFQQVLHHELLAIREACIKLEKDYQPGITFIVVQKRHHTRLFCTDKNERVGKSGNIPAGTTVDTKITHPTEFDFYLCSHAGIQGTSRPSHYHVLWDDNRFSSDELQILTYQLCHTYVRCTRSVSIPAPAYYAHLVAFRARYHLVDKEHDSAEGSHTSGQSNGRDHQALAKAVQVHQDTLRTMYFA
T1 sequence (Q9UKV8 whole entry): as above
T2 sequence (Q9UKV8 whole entry): as above
T3 sequence (Q9UKV8 whole entry): as above

Compound | kon [1] [M⁻¹ s⁻¹] | koff [1] [s⁻¹] | reconstituted luciferase luminescence versus non-treated or CP-treated cells [2] | binding to AGO2 on the peptide array (immunoblot) [3] | EC50 (DBTRG-05MG cell line) [µM] | time of significant degradation in the cells (change in 5′FAM fluorescence) (DBTRG-05MG cells [4]) | interference with MSI1/AGO2 binding complex formation (Co-IP immunoblot) (MSI1/AGO2 interaction) | effect of hypoxia-induced MSI1/AGO2 complex on downstream mRNAs (CCND1, CDK4, HELLS, NF2, TP53, p21) [6] | entry into cells (confocal microscopy) (endogenous AGO2) | further results
YQFPEFRVERTPLPSGRKKRRQRRRPPQ [Pep#11] | 32600 | 0.0168 | significantly lower | strongest binding peptides | 9.1 | within the first half an hour | completely abolished | reversed |  | time of significant increases in cellular uptake (DBTRG-05MG cells [5]): within the first hour
CC[C@H](C)[C@H](NC(=O)[C@H](CC(C)C)NC(=O)[C@@H]1CCCN1C(=O)CNC(=O)CNC(=O)[C@H](CC(C)C)NC(=O)[C@H](CO)NC(=O)[C@H](Cc1c[nH]cn1)NC(=O)c1ccc2c(c1)C(=O)OC21c2ccc(O)cc2Oc2cc(O)ccc21)C(=O)N[C@@H](C)C(=O)N[C@H](C(=O)N[C@@H](C)C(=O)N[C@@H](Cc1ccccc1)C(=O)N[C@H](C(=O)N[C@@H](CC(N)=O)C(=O)NCC(=O)NCC(=O)N[C@@H](CCCNC(=N)N)C(=O)N[C@@H](CCCCN)C(=O)N[C@@H](CCCCN)C(=O)N[C@@H](CCCNC(=N)N)C(=O)N[C@@H](CCCNC(=N)N)C(=O)N[C@@H](CCC(N)=O)C(=O)N[C@@H](CCCNC(=N)N)C(=O)N[C@@H](CCCNC(=N)N)C(=O)N[C@@H](CCCNC(=N)N)C(=O)N1CCC[C@H]1C(=O)N1CCC[C@H]1C(=O)N[C@@H](CCC(N)=O)C(=O)O)[C@@H](C)O)[C@@H](C)O [5′FAM-Pep#26] (5FAM-HSLGGPLIATAFTNGGRKKRRQRRRPPQ-OH) |  |  |  |  |  |  |  |  | capable of entering the cells | 
GSHPWTMAPPPGSTPGRKKRRQRRRPPQ [CP, reference compound] | 42500 | 4.53 |  |  |  |  |  |  |  | 
N.N.[Cl][Pt][Cl] [cisplatin, reference compound] |  |  |  |  |  |  |  |  |  | luciferase luminescence versus PBS-treated group ([2]; cells overexpressing M-NGluc and A-CGluc, 30 µM cisplatin): significantly greater luminescence
CC(C)C[C@H](NC(=O)[C@@H]1CCCN1C(=O)[C@@H](NC(=O)[C@H](CCCNC(=N)N)NC(=O)[C@H](CCC(=O)O)NC(=O)[C@@H](NC(=O)[C@H](CCCNC(=N)N)NC(=O)[C@H](Cc1ccccc1)NC(=O)[C@H](CCC(=O)O)NC(=O)[C@@H]1CCCN1C(=O)[C@H](Cc1ccccc1)NC(=O)[C@H](CCC(N)=O)NC(=O)[C@H](Cc1ccc(O)cc1)NC(=O)c1ccc2c(c1)C(=O)OC21c2ccc(O)cc2Oc2cc(O)ccc21)C(C)C)[C@@H](C)O)C(=O)N1CCC[C@H]1C(=O)N[C@@H](CO)C(=O)NCC(=O)N[C@@H](CCCNC(=N)N)C(=O)N[C@@H](CCCCN)C(=O)N[C@@H](CCCCN)C(=O)N[C@@H](CCCNC(=N)N)C(=O)N[C@@H](CCCNC(=N)N)C(=O)N[C@@H](CCC(N)=O)C(=O)N[C@@H](CCCNC(=N)N)C(=O)N[C@@H](CCCNC(=N)N)C(=O)N[C@@H](CCCNC(=N)N)C(=O)N1CCC[C@H]1C(=O)N1CCC[C@H]1C(=O)N[C@@H](CCC(N)=O)C(=O)O [5′FAM-Pep#11] (5FAM-YQFPEFRVERTPLPSGRKKRRQRRRPPQ-OH) |  |  |  |  |  |  |  |  | capable of entering the cells | subcellular co-localization with AGO2 (endogenous AGO2; confocal microscopy): co-localized with endogenous AGO2 in the cytosol
HSLGGPLIATAFTNGGRKKRRQRRRPPQ [Pep#26] | 3160 | 0.00213 | significantly lower | strongest binding peptides | 9 | within the first half an hour | completely abolished | reversed |  | 
